Data on 17 compounds can be found in patent publication US11306087B2, “Inhibitors of KRAS G12C and methods of using the same” (Amgen Inc., priority 2017, dated 2022).

The subject of experiment [1] is Phosphorylation of ERK1/2 in MIA PaCa-2 cells. The experiment can be described thus: Phospho-ERK1/2 MSD Assay. The class given is cell-based. The conditions noted are these: Homo sapiens, 2 hours compound treatment, 10 ng/mL EGF for 10 min, read-out: p-ERK IC50 (MIA PaCa-2). As for the experimental part:
Phospho-ERK1/2 MSD Assay: MIA PaCa-2 (ATCC® CRL-1420™) and A549 (ATCC® CCL-185™) cells were cultured in RPMI 1640 Medium (ThermoFisher Scientific 11875093) containing 10% fetal bovine serum (ThermoFisher Scientific 16000044) and 1× penicillin-streptomycin-glutamine (ThermoFisher Scientific 10378016). Sixteen hours prior to compound treatment, MIA PaCa-2 or A549 cells were seeded in 96-well cell culture plates at a density of 25,000 cells/well and incubated at 37° C., 5% CO2. A compound dose-response titration was diluted in growth media, added to appropriate wells of a cell culture plate, and then incubated at 37° C., 5% CO2 for 2 hours. Following compound treatment, cells were stimulated with 10 ng/mL EGF (Roche 11376454001) for 10 min, washed with ice-cold Dulbecco's phosphate-buffered saline, no Ca^2+ or Mg^2+ (ThermoFisher Scientific 14190144), and then lysed in RIPA buffer (50 mM Tris-HCl pH 7.5, 1% Igepal, 0.5% sodium deoxycholate, 150 mM NaCl, and 0.5% sodium dodecyl sulfate) containing protease inhibitors (Roche 4693132001) and phosphatase inhibitors (Roche 4906837001). Phosphorylation of ERK1/2 in compound-treated lysates was assayed using Phospho-ERK1/2 Whole Cell Lysate kits (Meso Scale Discovery K151DWD) according to the manufacturer's protocol. Assay plates were read on a Meso Scale Discovery Sector Imager 6000, and data were analyzed using a 4-parameter logistic model to calculate IC50 values.

The target in experiment [2] is GDP-bound KRAS protein (aa 1-169), containing both G12C and C118A amino acid substitutions (Homo sapiens (Human), UniProt P01116, C118A/G12C). The experiment can be described thus: Coupled Nucleotide Exchange Assay. It counts as biochemical. Conditions: 5 min compound pre-incubation; inhibition of SOS-mediated nucleotide exchange; AlphaScreen. As to the method:
For compounds in Table 2, the following assay conditions were employed: Coupled Nucleotide Exchange Assay: Purified GDP-bound KRAS protein (aa 1-169), containing both G12C and C118A amino acid substitutions and an N-terminal His-tag, was pre-incubated with a compound dose-response titration for 5 min in assay buffer (25 mM HEPES pH 7.4, 10 mM MgCl2, and 0.01% Triton X-100). Following compound pre-incubation, purified SOS protein (aa 564-1049) and GTP (Roche 10106399001) were added to the assay wells and incubated for an additional 30 min. To determine the extent of inhibition of SOS-mediated nucleotide exchange, purified GST-tagged cRAF (aa 1-149), nickel chelate AlphaLISA acceptor beads (PerkinElmer AL108R), and AlphaScreen glutathione donor beads (PerkinElmer 6765302) were added to the assay wells and incubated for 5 minutes. The assay plates were then read on a PerkinElmer EnVision Multilabel Reader, using AlphaScreen® technology, and data were analyzed using a 4-parameter logistic model to calculate IC50 values.

pIC50: −log10 of the molar value.

Sequence of GDP-bound KRAS protein (aa 1-169), containing both G12C and C118A amino acid substitutions (P01116 other isoform, or with tags, fused parts or gaps G12C/C118A): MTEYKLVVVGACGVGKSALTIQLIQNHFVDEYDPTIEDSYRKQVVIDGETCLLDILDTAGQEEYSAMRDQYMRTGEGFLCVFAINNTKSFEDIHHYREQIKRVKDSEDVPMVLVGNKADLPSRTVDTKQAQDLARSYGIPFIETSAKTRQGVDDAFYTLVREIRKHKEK

On to `C=CC(=O)N1[C@H](C)CN(c2nc(=O)n(-c3c(C)ccnc3C(C)C)c3nc(-c4c(O)cccc4F)c(F)cc23)C[C@@H]1C` (atropisomer, axis not shown; (M)) [Example 17, (M)-4-(4-Acryloyl-cis-3,5-dimethylpiperazin-1-yl)-6-fluoro-7-(2-fluoro-6-hydroxyphenyl)-1-(2-isopropyl-4-methylpyridin-3-yl)pyrido[2,3-d]pyrimidin-2(1H)-one], for which the pIC50 (usually −log10 of the IC50, conventionally taken in molar units) was 6.98 in experiment [1] and 6.93 in experiment [2].
In experiment [2], `C=CC(=O)N1[C@H](C)CN(c2nc(=O)n(-c3c(C(C)C)ncnc3C(C)C)c3nc(-c4ccccc4F)c(F)cc23)C[C@@H]1C` [Example 22, 4-(4-Acryloyl-cis-3,5-dimethylpiperazin-1-yl)-1-(4,6-diisopropylpyrimidin-5-yl)-6-fluoro-7-(2-fluorophenyl)pyrido[2,3-d]pyrimidin-2(1H)-one] gave a negative-log IC50 (pIC50) of 6.25.
In the case of `C=CC(=O)N1C[C@H](C)N(c2nc(=O)n(-c3c(C)ccnc3C(C)C)c3nc(-c4c(O)cccc4F)c(F)cc23)C[C@H]1C` [Example 5, 4-((2S,5R,M)-4-Acryloyl-2,5-dimethylpiperazin-1-yl)-6-fluoro-7-(2-fluoro-6-hydroxyphenyl)-1-(2-isopropyl-4-methylpyridin-3-yl)pyrido[2,3-d]pyrimidin-2(1H)-one], the pIC50 was 7.34 in experiment [1] and 7.10 in experiment [2].
In the same order, the values of `C=CC(=O)N1C[C@H](C)N(c2nc(=O)n(-c3c(C)ccnc3C(C)C)c3nc(-c4c(O)cccc4F)c(Cl)cc23)C[C@H]1C` [Example 2, 4-((2S,5R,M)-4-Acryloyl-2,5-dimethylpiperazin-1-yl)-6-chloro-7-(2-fluoro-6-hydroxyphenyl)-1-(2-isopropyl-4-methylpyridin-3-yl)pyrido[2,3-d]pyrimidin-2(1H)-one] are 7.80 and 7.57.
Taken in the same sequence, the figures for `C=CC(=O)N1[C@H](C)CN(c2nc(=O)n(-c3c(C)ccnc3C(C)C)c3nc(-c4c(O)cccc4F)c(Cl)cc23)C[C@@H]1C` (atropisomer, axis not shown; (M)) [Example 14, (M)-4-(4-Acryloyl-cis-3,5-dimethylpiperazin-1-yl)-6-chloro-7-(2-fluoro-6-hydroxyphenyl)-1-(2-isopropyl-4-methylpyridin-3-yl)pyrido[2,3-d]pyrimidin-2(1H)-one] were 7.46 and 7.80.
In the case of `C=CC(=O)N1C[C@H](C)N(c2nc(=O)n(-c3c(C)ccnc3C(C)C)c3nc(-c4ccccc4F)c(F)cc23)C[C@H]1C` [Example 4, 4-((2S,5R,M)-4-Acryloyl-2,5-dimethylpiperazin-1-yl)-6-fluoro-7-(2-fluorophenyl)-1-(2-isopropyl-4-methylpyridin-3-yl)pyrido[2,3-d]pyrimidin-2(1H)-one], the pIC50 was 6.99 in experiment [1] and 6.69 in experiment [2].
In the same order, the values of `C=CC(=O)N1C[C@H](C)N(c2nc(=O)n(-c3c(C)ccnc3C(C)C)c3nc(-c4ccccc4F)c(Cl)cc23)C[C@H]1C` [Example 1, 4-((2S,5R,M)-4-Acryloyl-2,5-dimethylpiperazin-1-yl)-6-chloro-7-(2-fluorophenyl)-1-(2-isopropyl-4-methylpyridin-3-yl)pyrido[2,3-d]pyrimidin-2(1H)-one] are 7.59 and 7.40.
As to `C=CC(=O)N1C[C@H](C)N(c2nc(=O)n(-c3c(C(C)C)ncnc3C(C)C)c3nc(-c4c(O)cccc4F)c(F)cc23)C[C@H]1C` [Example 11, 4-((2S,5R)-4-Acryloyl-2,5-dimethylpiperazin-1-yl)-1-(4,6-diisopropylpyrimidin-5-yl)-6-fluoro-7-(2-fluoro-6-hydroxyphenyl)pyrido[2,3-d]pyrimidin-2(1H)-one], the pIC50 in experiment [1] was 6.99. The IC50 (as a rule, the concentration needed to halve the response being measured) in experiment [2] was 136 nM.
For `C=CC(=O)N1C[C@H](C)N(c2nc(=O)n(-c3c(C)ccnc3C(C)C)c3nc(-c4c(N)cccc4F)c(Cl)cc23)C[C@H]1C` [Example 3, 4-((2S,5R,M)-4-Acryloyl-2,5-dimethylpiperazin-1-yl)-7-(2-amino-6-fluorophenyl)-6-chloro-1-(2-isopropyl-4-methylpyridin-3-yl)pyrido[2,3-d]pyrimidin-2(1H)-one], the results for the pIC50 in experiment [1] and in experiment [2] were 8.05 and 7.89, respectively.
Taken in the same sequence, the figures for `C=CC(=O)N1C[C@H](C)N(c2nc(=O)n(-c3c(C(C)C)ncnc3C(C)C)c3nc(-c4c(O)cccc4F)c(Cl)cc23)C[C@H]1C` [Example 8, 4-((2S,5R)-4-Acryloyl-2,5-dimethylpiperazin-1-yl)-6-chloro-1-(4,6-diisopropylpyrimidin-5-yl)-7-(2-fluoro-6-hydroxyphenyl)pyrido[2,3-d]pyrimidin-2(1H)-one] were 7.82 and 7.52.
For the compound `C=CC(=O)N1C[C@H](C)N(c2nc(=O)n(-c3c(C(C)C)ncnc3C(C)C)c3nc(-c4ccccc4F)c(Cl)cc23)C[C@H]1C` [Example 7, 4-((2S,5R)-4-Acryloyl-2,5-dimethylpiperazin-1-yl)-6-chloro-1-(4,6-diisopropylpyrimidin-5-yl)-7-(2-fluorophenyl)pyrido[2,3-d]pyrimidin-2(1H)-one], the pIC50 is 7.59 in experiment [1] and 7.31 in experiment [2].
In the same order, the values of `C=CC(=O)N1[C@H](C)CN(c2nc(=O)n(-c3c(C(C)C)ncnc3C(C)C)c3nc(-c4c(O)cccc4F)c(Cl)cc23)C[C@@H]1C` [Example 20, 4-(4-Acryloyl-cis-3,5-dimethylpiperazin-1-yl)-6-chloro-1-(4,6-diisopropylpyrimidin-5-yl)-7-(2-fluoro-6-hydroxyphenyl)pyrido[2,3-d]pyrimidin-2(1H)-one] are 7.66 and 7.47.
In the same order, the values of `C=CC(=O)N1C[C@H](C)N(c2nc(=O)n(-c3c(C(C)C)ncnc3C(C)C)c3nc(-c4c(N)cccc4F)c(F)cc23)C[C@H]1C` [Example 12, 4-((2S,5R)-4-Acryloyl-2,5-dimethylpiperazin-1-yl)-7-(2-amino-6-fluorophenyl)-1-(4,6-diisopropylpyrimidin-5-yl)-6-fluoropyrido[2,3-d]pyrimidin-2(1H)-one] are 7.06 and 6.67.
In the same order, the values of `C=CC(=O)N1[C@H](C)CN(c2nc(=O)n(-c3c(C)ccnc3C(C)C)c3nc(-c4c(N)cccc4F)c(F)cc23)C[C@@H]1C` (atropisomer, axis not shown; (M)) [Example 18, (M)-4-(4-Acryloyl-cis-3,5-dimethylpiperazin-1-yl)-7-(2-amino-6-fluorophenyl)-6-fluoro-1-(2-isopropyl-4-methylpyridin-3-yl)pyrido[2,3-d]pyrimidin-2(1H)-one] are 7.12 and 7.16.
In experiment [2], `C=CC(=O)N1[C@H](C)CN(c2nc(=O)n(-c3c(C)ccnc3C(C)C)c3nc(-c4ccccc4F)c(F)cc23)C[C@@H]1C` (atropisomer, axis not shown; (M)) [Example 16, (M)-4-(4-Acryloyl-cis-3,5-dimethylpiperazin-1-yl)-6-fluoro-7-(2-fluorophenyl)-1-(2-isopropyl-4-methylpyridin-3-yl)pyrido[2,3-d]pyrimidin-2(1H)-one] had a pIC50 of 6.29.
Still for that read-out and setting: in the case of `C=CC(=O)N1[C@H](C)CN(c2nc(=O)n(-c3c(C(C)C)ncnc3C(C)C)c3nc(-c4c(N)cccc4F)c(F)cc23)C[C@@H]1C` [Example 24, 4-(4-Acryloyl-cis-3,5-dimethylpiperazin-1-yl)-7-(2-amino-6-fluorophenyl)-1-(4,6-diisopropylpyrimidin-5-yl)-6-fluoropyrido[2,3-d]pyrimidin-2(1H)-one] it was 6.40.
Regarding `C=CC(=O)N1[C@H](C)CN(c2nc(=O)n(-c3c(C)ccnc3C(C)C)c3nc(-c4c(N)cccc4F)c(Cl)cc23)C[C@@H]1C` (atropisomer, axis not shown; (M)) [Example 15, (M)-4-(4-Acryloyl-cis-3,5-dimethylpiperazin-1-yl)-7-(2-amino-6-fluorophenyl)-6-chloro-1-(2-isopropyl-4-methylpyridin-3-yl)pyrido[2,3-d]pyrimidin-2(1H)-one], the pIC50 in experiment [1] is 7.82.
